Several values for one entry are separate records, joined by “and”; a condition that tells them apart may be missing. Equal entries are not always repeated.
Tests used:
[1] = tested on: p185BCR-ABL Arf–/– pre-B-ALL; assay: Systemic primary pre-B-ALL leukemia model, survival, bioluminescence, body weight; assay type: in vivo
dCK pS74 = assay: Phosphoproteomic nLC-MS/MS analysis of dCK phosphorylation; assay type: cell-based, human; design: key to dCK pS74: ↓: partial decrease/inhibition; ↓↓↓: nearly complete inhibition; ↑: increase; ⟷: no change
Protocol: (§1) against both the Uniprot human FASTA database and a decoy database of the Uniprot human database which read from C-terminus to N-terminus; Percolator was used to filter the data at 1% FDR at both the peptide and […]
(§2) Phosphoproteomic analyses. CCRF-CEM cells were prepared same as the asynchronous CEM cells total protein digests above, except that a total of 7.5 mg total protein from 1 x 10^8 cells was collected per treatment condition for phosphoproteomic analysis. tC18 Sep-Pak cartridges (Waters) were used for peptide desalting and Pierce Quantitative Colorimetric Peptide Assay was performed prior to phosphopeptide enrichment.
Hydrophilic interaction chromatography (HILIC) and immobilized metal affinity chromatography (IMAC) were performed same as previously described4. Data dependent nLC-MS/MS was performed on Thermo QExactive Plus same as above. […] Identified phosphopeptides were manually quantified by area-based extracted ion chromatograms of the monoisotopic peak. […]

RRM2 pT33 = assay: Phosphoproteomic nLC-MS/MS analysis of RRM2 phosphorylation; assay type: cell-based, human; design: key to RNR pT33: ↓: partial decrease/inhibition; ↓↓↓: nearly complete inhibition; ↑: increase; ⟷: no change
Protocol: as §1, §2
Hydrophilic interaction chromatography (HILIC) and immobilized metal affinity chromatography (IMAC) were performed same as previously described4. Data dependent nLC-MS/MS was performed on Thermo QExactive Plus same as above. Raw data was searched against Uniprot human database using MaxQuant 1.5.3.30 with the following search parameters: trypsin cleavage allowing up to 2 missed cleavages, fixed modification of carbamidomethyl to cysteines, variable modifications of acetylation to protein N-terminus, methionine oxidation, and phosphorylation to serine, threonine, and tyrosine, 10 ppm and 20 mmu mass errors for full MS and MS/MS, respectively, score of 40 or greater for modified peptides, and 1% false-discovery rate on peptide and protein identifications. Identified phosphopeptides were manually quantified by area-based extracted ion chromatograms of the monoisotopic peak. […]
Plasma samples were processed the same way as the calibration standard samples. 20 μL samples were injected onto a reverse phase column, (Thermo Scientific Hypersil GOLD column 3.0 µm; 2.1 x 100 mm) equilibrated in water/formic acid, 100/0.1, and eluted (200 μL/min) with an increasing concentration of solvent […]
The effluent from the column was directed to the Agilent Jet Stream ion source connected to the triple quadrupole mass spectrometer (Agilent 6460) operating in the multiple reaction monitoring (MRM) mode using previously optimized settings. The following drug precursor→fragment ion transitions were used: 3-AP

asynchronous CEM cells = assay: Quantitative global proteomics (nLC-MS/MS), asynchronous cells; assay type: cell-based, human
Protocol: To investigate the molecular mechanisms underlying the metabolic consequences of ATR and dCK inhibition, global changes in protein expression were assessed in CEM cells using quantitative nano-LC tandem MS (nLC-MS/MS) (Fig. 2a). Chemical isotope coding following reductive dimethylation of peptide N-termini and lysine primary amines with differential stable isotopes (light:medium:heavy) was used to compare expression of experimental (VE-822, dCKi and VE-822 + dCKi) samples to controls (untreated, NT) by mixing equal proportions for triplex nLC-MS/MS quantitative analyses. The data set was filtered for proteins identified in all treatment groups in three independent experiments with coefficients of variation <20%. This yielded 1757 proteins with relative fold changes in treated vs. untreated cells ranging from 0.45 to 1.83. […] Protein levels of both RNR subunits, RRM1 and RRM2, as well as thymidylate synthase decreased by more than 20% following ATR inhibition (Fig. 2c). Changes in the expression of de novo enzymes observed in synchronous cells also occurred with ATR inhibition in asynchronous CEM cells (Fig. 2d and Supplementary Data 3), thereby arguing against the possibility of experimental artifacts introduced by Palbociclib-mediated cell cycle synchronization. The reduction in RRM2 levels induced by ATR inhibition was accompanied by an ~ 50% decrease in the phosphorylation of RRM2 on threonine 33 (pT33) (Fig. 2e), a phosphosite previously linked to the RRM2 stability. […]
Proteomic analyzes. CCRF-CEM cells were treated ± with a CDK4/6 inhibitor, PD-0332991 (Selleckchem) for 18 h to arrest at G1 phase. Cells were then washed twice with PBS and released in fresh media with treatment at a density of 1 x 10^6 cells/mL. Cells were collected at 12 h, washed twice with ice-cold PBS, and lysed by trituration using 1 mL per 5 x 10^7 cells of 0.5% sodium deoxycholate, 12 mM sodium lauryl sarcosine, and 50 mM triethylammonium bicarbonate, pH 8.0. Lysates were heated at 95 °C for 5 min and water bath sonicated at room temperature (RT) for 5 min. Bicinchoninic acid protein assay (Pierce) was performed to determine protein concentration. Disulfide bridges were reduced with 5 mM tris(2-carboxyethyl)phosphine (final concentration) at RT for 30 min with subsequent treatment with 10 mM iodoacetamide (final concentration) at RT in the dark for 30 min. Solutions were diluted 1:5 (v:v) with 50 mM triethylammonium bicarbonate. Proteins were cleaved with sequencing grade trypsin (Promega) at 1:100 (enzyme:protein) for 4 h at 37 °C followed by a second aliquot of trypsin 1:100 (enzyme:protein) overnight at 37 °C. Samples were acidified with 0.5% trifluoroacetic acid (final concentration), vortexed rapidly for 5 min, and centrifuged (16,000 x g for 5 min, RT) to pellet sodium deoxycholate. Supernatants were transferred to new microcentrifuge tubes and 20 µg of total peptide were desalted using C18 StageTips as previously described2. On-column dimethyl labeling using C18 StageTips was performed as previously described3. Briefly, StageTips were equilibrated with 20 μL of 250 mM 2-(N-morpholino)ethanesulfonic acid (MES) pH 5.5. Tryptic peptides were dimethyl labeled using 60 mM sodium cyanoborohydride, 0.4% formaldehyde, and 250 mM MES pH 5.5 for 10 min. Dimethyl labeled peptides were eluted from StageTips using 20 μL of 80% acetonitrile with 0.1% trifluoroacetic acid and lyophilized to dryness. […]

p185BCR-ABL Arf–/– cells = assay: Proliferation assay (CellTiter-Glo, 72 h); assay type: cell-based; details: Mus musculus
Protocol: Cells were plated in 384-well plates (1000 cells/well for suspension cell lines and 500 cells/well for adherent cell lines in 30 µl volume). Drugs were serially diluted to the desired concentrations and an equivalent volume of DMSO was added to vehicle control. Ten microliter of the 4× diluted drugs were added to each well. Following 72 h incubation, ATP content was measured using CellTiter-Glo reagent according to manufacturer’s instructions (Promega, CellTiter-Glo Luminescent Cell Viability Assay), and analyzed by SpectraMax luminometer (Molecular Devices). IC50 values, concentrations required to inhibit proliferation by 50% compared to DMSO treated cells, were calculated using Prism 6.0 h (Graphpad Software).

[2] = asynchronous CEM, VE-822 1 µM, 12 h
[3] = 1 µM VE-822, 12 h, analyses #1-#3

CNCc1ccc(-c2cc(-c3nc(-c4ccc(S(=O)(=O)C(C)C)cc4)cnc3N)on2)cc1 [VE-822]
efficacy in vivo of VE-822 alone ([1]; VE-822 40 mg kg–1 once daily): only marginally efficacious
time by which all treated mice died of leukemia ([1]; after inoculation, VE-822 40 mg kg–1 once daily): ≤ 38 days
Median survival ([1]; after treatment initiation, 40 mg kg–1 day–1 VE-822, n = 6): 32.5 days
decrease in dCK pS74 (fold) (dCK pS74; VE-822-treated leukemia cells): two-fold
dCK pS74 (dCK pS74; summary Fig. 2g, CEM cells): ↓
decrease in the phosphorylation of RRM2 on threonine 33 (pT33) (RRM2 pT33; [2]): ~ 50%
mean fold change of RRM2 pT33 normalized to total RRM2 (RRM2 pT33; [2]): 0.43 ± 0.1 fold
observed fold decrease for pT33 (phosphoproteomic nLC-MS/MS) (RRM2 pT33; [2]): 0.34 fold
RNR pT33 (RRM2 pT33; summary Fig. 2g, CEM cells): ↓
Protein expression level normalized to control (NT): Apoptosis regulatory protein Siva (SIVA1) (asynchronous CEM cells; [3]): 0.5843 and 0.5702 and 0.5605
Protein expression level normalized to control (NT): Aspartate--tRNA ligase, cytoplasmic (DARS) (asynchronous CEM cells; [3]): 0.9056 and 0.9095
Protein expression level normalized to control (NT): Eukaryotic translation initiation factor 2 subunit 3 (EIF2S3;EIF2S3L) (asynchronous CEM cells; [3]): 0.9499 and 0.9479 and 0.9485
Protein expression level normalized to control (NT): GA-binding protein alpha chain (GABPA) (asynchronous CEM cells; [3]): 0.6147 and 0.6159 and 0.6369
observed fold decrease in total RRM2 protein (proteomic nLC-MS/MS) (asynchronous CEM cells; [2]): 0.77 fold
IC50 (p185BCR-ABL Arf–/– cells): ~300 nM
